The record followed here is patent US7638516B2, “Agent for therapeutic treatment of optic nerve diseases and the like” (Mei Co., Ltd., priority 2000, dated 2009).

In the assay the test system is retinal degeneration induced by transient retinal ischemia. The experiment in a line: Suppressing effect on retinal degeneration in transient retinal ischemia. To be noted: rat, 3 mg/kg into the caudal vein immediately before and after ocular hypertension treatment (IOP 130 mmHg, 50 minutes); 7 days after treatment; p<0.01 relative to control. The class given is in vivo, Wister male rats. The method, then:
Wister male rats (body weight of about 200 g) were used. Each animal was subjected to sufficient warming treatment by using a thermal plate under anesthesia, and the head was fixed by using a stereotaxic apparatus. In order to induce transient retinal ischemia, IOP was maintained at 130 mmHg for 50 minutes by injecting intraocular irrigating solution into the anterior chamber via the cornea using an infusion tube and 30 G injection needle which were connected to a bottle held at 174 cm above the eyes (ocular hypertension treatment) according to the method of Akaike (Folia Pharmacologica Japonica, 111, pp. 97-104 (1998)). The ocular hypertension treatment was performed only on the right eye, and the left eye was left untreated. Immediately before and after the ocular hypertension treatment, a physiological saline solution or a dose of 3 mg/kg of MCI-186 was injected to the caudal vein. […] That is, a light-microscopic section of the retina was prepared 7 days after the ocular hypertension treatment, and the thickness of the retina was measured under microscope by using a micrometer (thickness from inner plexiform layer to inner nuclear layer). […] 7 days after the ocular hypertension treatment. Data represent means±SEM. As for the number of animals, the control group consisted of 10 rats, and the MCI-186 group consisted of 11 rats. […]

With `CC1=NN(c2ccccc2)C(=O)C1` [MCI-186, 3-methyl-1-phenyl-2-pyrazolin-5-one], the “retinal degeneration induced by transient retinal ischemia (retinal thickness ratio, ocular hypertension treated eye/normal eye)” value is given as “significantly suppressed”.
